Experimental data published in patent publication US20250304549A1, “HYDROXYAMIDE DERIVATIVE AND USE THEREOF” (SICHUAN HUIYU PHARMACEUTICAL CO., LTD., priority 2022, published 2025).
Structures can show the parent of a compound that is named as a salt.

Legend:
[1] = biological target: LSD1 (Homo sapiens (Human), UniProt O60341); test: In vitro enzyme inhibition assay - LSD1 (HTRF); assay type: biochemical
[2] = biological target: pan-HDAC; test: In vitro enzyme inhibition assay - HDAC (HDAC-Glo I/II), pan-HDAC; assay type: biochemical
How it was run: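 Inhibition was measured with the HDAC-Glo I/II luminescent assay, testing compound as an 8-point, 5-fold dilution series from a 1 mM DMSO stock. Luminescence (RLU) was normalized to no-inhibitor and no-enzyme controls, and IC50 was derived by four-parameter variable-slope fitting.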

[3] = system: NCI-H1417 cells; test: In vitro cell inhibition assay - H1417 cell proliferation (CellTiter-Glo); assay type: cell-based; conditions: Homo sapiens, NCI-H1417, H1417 small cell lung cancer cell proliferation
How it was run: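 Cells exposed to 8 compound concentrations (5-fold dilutions) in BEGM with 10% FBS for 7 days at 37° C., 5% CO2. Viable cells measured by CellTiter-Glo luminescence; inhibition versus no-inhibitor and no-cell controls, IC50 fitted.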

[4] = biological target: HDAC8 (Homo sapiens (Human), UniProt Q9BY41); test: In vitro enzyme inhibition assay - HDAC (HDAC-Glo I/II), HDAC8; assay type: biochemical; conditions: read-out: HDAC IC50 (nM) HDAC 8
Chain of HDAC8 (Q9BY41 whole entry): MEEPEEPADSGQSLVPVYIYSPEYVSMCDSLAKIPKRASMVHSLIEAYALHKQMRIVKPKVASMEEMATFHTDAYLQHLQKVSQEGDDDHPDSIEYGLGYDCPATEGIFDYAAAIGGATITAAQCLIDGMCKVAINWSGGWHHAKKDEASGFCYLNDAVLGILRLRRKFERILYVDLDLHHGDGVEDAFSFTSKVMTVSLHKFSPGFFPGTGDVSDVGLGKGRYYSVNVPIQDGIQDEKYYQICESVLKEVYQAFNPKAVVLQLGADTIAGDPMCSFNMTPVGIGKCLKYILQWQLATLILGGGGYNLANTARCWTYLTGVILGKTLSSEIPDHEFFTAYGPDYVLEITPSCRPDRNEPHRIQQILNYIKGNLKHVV
Protocol: 2. In Vitro Enzyme Inhibition Assay—HDAC
The effect of the compound on the enzymatic activity of pan-HDAC and two isoforms (HDAC1 and HDAC8) was examined using the HDAC-Glo I/II Assay and Screening System assay to assess the level of inhibition of HDAC protease activity and selectivity in each isoform. The proteins and detection reagents were from the HDAC-Glo™ I/II Assay and Screening System (Promega). A 1 mM stock solution of the compound was prepared in DMSO and diluted in a 5-fold gradient to create a series of 8 concentrations, and a specific volume of the highest concentration was diluted 25 times with HDAC Buffer to obtain 4× working solution of the compound. […] The 384-well plate was then read on a multifunctional microplate reader, with the Luminescence channel selected to record Luminescence values (RLU). The inhibition rate was calculated using the following formula: […]
Note: ‘Negative’ refers to the group without the inhibitor; ‘Blank’ refers to the group without the enzyme.
The IC50 value was calculated by fitting the inhibition rate by GraphPad Prism software, employing log (inhibitor) vs. response-Variable Slope (four parameters) model.

[5] = system: NCI-H69 cells; test: In vitro cell inhibition assay - NCI-H69 cell proliferation (CellTiter-Glo); assay type: cell-based; conditions: Homo sapiens, NCI-H69, H69 small cell lung cancer cell proliferation
How it was run: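 CellTiter-Glo luminescence measured viability after a 7-day, 37° C. exposure of NCI-H69 cells (1×10^3/well) to an 8-point, 5-fold dilution series in RPMI-640/20% FBS. Inhibition was normalised to untreated and cell-free wells and IC50 derived by curve fitting.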

| Compound | IC50 [1] [nM] | IC50 [2] [nM] | IC50 [3] [nM] | IC50 [4] [nM] | IC50 [5] [nM] |
| --- | --- | --- | --- | --- | --- |
| N#Cc1ccc(-c2nc(N3CCC(N)CC3)cc(O)c2-c2ccc(OCCCCCCC(=O)NO)c(O)c2)cc1F [Example 19, 7-(4-(6-(4-aminopiperidin-1-yl)-2-(4-cyano-3-fluorophenyl)-4-hydroxypyridin-3-yl)-2-hydroxyphenoxy)-N-hydroxyheptanamide hydrochloride] | 0.86 | 174 | 2820 | 221 |  |
| N#Cc1ccc(-c2c(-c3ccc(OCCCCCCC(=O)NO)c(O)c3)cnc(N3CCC(N)CC3)c2C#N)cc1F [Example 25, 7-(4-(6-(4-Aminopiperidin-1-yl)-5-cyano-4-(4-cyano-3-fluorophenyl)pyridin-3-yl)-2-hydroxyphenoxy)-N-hydroxyheptanamide hydrochloride] | 0.23 | 6.66 | 50.1 | 129 |  |
| N#Cc1ccc(-c2cc(OCc3ccc(/C=C/C(=O)NO)cc3)cc(N3CCC(N)CC3)n2)cc1F [Example 69, (E)-3-(4-(((2-(4-Aminopiperidin-1-yl)-6-(4-cyano-3-fluorophenyl)pyridin-4-yl)oxy)methyl)phenyl)-N-hydroxyacrylamide formate] | > 1000 | 30.1 |  | 198 |  |
| N#Cc1ccc(-c2c(-c3ccc(N4CCOCC4)c(O)c3)cnc(N3CCC(NCc4ccc(/C=C/C(=O)NO)cn4)CC3)c2C#N)cc1F [Example 246, (E)-3-(6-(((1-(3-Cyano-4-(4-cyano-3-fluorophenyl)-5-(3-hydroxy-4-morpholinophenyl)pyridin-2-yl)piperidin-4-yl)amino)methyl)pyridin-3-yl)-N-hydroxyacrylamide formate] | 0.93 | 5.38 | 10.8 |  | 14.3 |
| COc1ccc(-c2cnc(N3CCC(NCc4ccc(/C=C/C(=O)NO)cc4F)CC3)c(C#N)c2-c2ccc(C#N)nc2)cc1O [Example 252, (E)-3-(4-(((1-(3′,6-Dicyano-5′-(3-hydroxy-4-methoxyphenyl)-[3,4′-bipyridin]-2′-yl)piperidin-4-yl)amino)methyl)-3-fluorophenyl)-N-hydroxyacrylamide formate] | 3.24 | 1.03 | 1.86 |  | 4.32 |
| COc1ccc(-c2cnc(N3CCC(NCc4ccc(/C=C/C(=O)NO)c(OC)c4)CC3)c(C#N)c2-c2ccc(C#N)nc2)cc1O [Example 257, (E)-3-(4-(((1-(3′,6-Dicyano-5′-(3-hydroxy-4-methoxyphenyl)-[3,4′-bipyridin]-2′-yl)piperidin-4-yl)amino)methyl)-2-methoxyphenyl)-N-hydroxyacrylamide formate] | 7.93 | 0.59 | 7.61 |  | 11.2 |
| COc1cc(F)c(-c2cnc(N3CCC(NCc4ccc(/C=C/C(=O)NO)cc4)CC3)c(C)c2-c2ccc(C#N)nc2)cc1O [Example 262, (E)-3-(4-(((1-(6-Cyano-5′-(2-fluoro-5-hydroxy-4-methoxyphenyl)-3′-methyl-[3,4′-bipyridin]-2′-yl)piperidin-4-yl)amino)methyl)phenyl)-N-hydroxyacrylamide formate] | 7.04 | 0.61 | 11.8 |  | 11.1 |
| COc1ccc(-c2cnc(N3CCC(NCc4ccc(/C=C/C(=O)NO)cc4F)CC3)c(F)c2-c2ccc(C#N)nc2)cc1O [Example 269, (E)-3-(4-(((1-(6-Cyano-3′-fluoro-5′-(3-hydroxy-4-methoxyphenyl)-[3,4′-bipyridin]-2′-yl)piperidin-4-yl)amino)methyl)-3-fluorophenyl)-N-hydroxyacrylamide hydrochloride] | 193 | 0.93 | 2.66 |  | 1.87 |
| COc1cc(F)c(-c2cnc(N3CCC(NCc4ccc(/C=C/C(=O)NO)cc4)CC3)c(F)c2-c2ccc(C#N)nc2)cc1O [Example 270, (E)-3-(4-(((1-(6-Cyano-3′-fluoro-5′-(2-fluoro-5-hydroxy-4-methoxyphenyl)-[3,4′-bipyridin]-2′-yl)piperidin-4-yl)amino)methyl)phenyl)-N-hydroxyacrylamide formate] | 24.8 | 0.32 | 4.88 |  | 3.24 |
| COc1ccc(-c2cnc(N3CCC(NCc4ccc(/C=C(\F)C(=O)NO)cc4)CC3)c(F)c2-c2ccc(C#N)nc2)cc1O [Example 271, (Z)-3-(4-(((1-(6-Cyano-3′-fluoro-5′-(3-hydroxy-4-methoxyphenyl)-[3,4′-bipyridin]-2′-yl)piperidin-4-yl)amino)methyl)phenyl-2-fluoro-N-hydroxyacrylamide formate] | 35.1 | 0.83 | 2.19 |  | 1.8 |

More lines, now with the values ahead:

| IC50 [1] [nM] | IC50 [2] [nM] | IC50 [3] [nM] | IC50 [4] [nM] | IC50 [5] [nM] | Compound |
| --- | --- | --- | --- | --- | --- |
| 17 | 1.08 | 2.42 |  | 1.93 | COc1ccc(-c2cnc(N3CCC(NCc4ccc(/C=C/C(=O)NO)cc4)CC3)c(C#N)c2-c2cnc(C#N)nc2)cc1O [Example 250, E)-3-(4-(((1-(3-Cyano-4-(2-cyanopyrimidin-5-yl)-5-(3-hydroxy-4-methoxyphenyl)pyridin-2-yl)piperidin-4-yl)amino)methyl) phenyl)-N-hydroxyacrylamide formate] |
| 342 | 0.3 | 13.2 |  | 5.25 | COC(=O)c1ccc(-c2c(-c3ccc(OC)c(O)c3)cnc(N3CCC(NCc4ccc(/C=C/C(=O)NO)cc4)CC3)c2C#N)cn1 [Example 253, Methyl (E)-3′-cyano-5′-(3-hydroxy-4-methoxyphenyl)-2′-(4-((4-(3-(hydroxyamino)-3-oxoprop-1-en-1-yl)benzyl)amino)piperidin-1-yl)-[3,4′-bipyridine]-6-carboxylate formate] |
| 35.4 | 0.41 | 5.77 |  | 4.69 | COc1ccc(-c2cnc(N3CCC(NCc4ccc(/C=C/C(=O)NO)cc4)CC3)c(C)c2-c2ccc(C#N)nc2)cc1O [Example 254, (E)-3-(4-(((1-(6-Cyano-5′-(3-hydroxy-4-methoxyphenyl)-3′-methyl-[3,4′-bipyridin]-2′-yl)piperidin-4-yl)amino)methyl)phenyl)-N-hydroxyacrylamide formate] |
| 28.8 | 0.26 | 8.48 |  | 8.63 | COc1ccc(-c2cnc(N3CCC(NCc4ccc(/C=C/C(=O)NO)cc4)CC3)c(C#N)c2-c2cnc(C#N)cn2)cc1O [Example 256, (E)-3-(4-(((1-(3-Cyano-4-(5-cyanopyrazin-2-yl)-5-(3-hydroxy-4-methoxyphenyl)pyridin-2-yl)piperidin-4-yl)amino)methyl)phenyl)-N-hydroxyacrylamide formate] |
| 81.2 | 0.25 | 7.2 |  | 7.48 | COc1ccc(-c2cnc(N3CCC(NCc4ccc(/C=C/C(=O)NO)cc4)CC3)c(C#N)c2-c2ccc(C(N)=O)nc2)cc1O [Example 259, (E)-3′-Cyano-5′-(3-hydroxy-4-methoxyphenyl)-2′-(4-((4-(3-(hydroxyamino)-3-oxoprop-1-en-1-yl)benzyl)amino)piperidin-1-yl)-[3,4′-bipyridine]-6-carboxamide formate] |
| 3.18 | 1.42 | 19 |  | 8.47 | COc1ccc(-c2cnc(N3CCC(NCc4ccc(/C=C/C(=O)NO)cc4)CC3)c(CC#N)c2-c2ccc(C#N)nc2)cc1O [Example 261, (E)-3-(4-(((1-(6-Cyano-3′-(cyanomethyl)-5′-(3-hydroxy-4-methoxyphenyl)-[3,4′-bipyridin]-2′-yl)piperidin-4-yl)amino)methyl)phenyl)-N-hydroxyacrylamide formate] |
| 7.36 | 1.93 | 7.49 |  | 13.6 | COc1ccc(-c2ccc(N3CCC(NCc4ccc(/C=C/C(=O)NO)cc4)CC3)c(C#N)c2-c2ccc(C#N)nc2)cc1O [Example 267, (E)-3-(4-(((1-(3-Cyano-2-(6-cyanopyridin-3-yl)-3′-hydroxy-4′-methoxy-[1,l′-biphenyl]-4-yl)piperidin-4-yl)amino)methyl)phenyl)-N-hydroxyacrylamide formate] |
| 25.2 | 0.3 | 16.8 |  | 13.3 | COc1ccc(-c2cnc(N3CCC(NCc4ccc(/C=C/C(=O)NO)cc4)CC3)cc2-c2ccc(C#N)nc2)cc1O [Example 272, ((E)-3-(4-(((1-(6-Cyano-5′-(3-hydroxy-4-methoxyphenyl)-[3,4′-bipyridin]-2′-yl)piperidin-4-yl)amino)methyl)phenyl)-N-hydroxyacrylamide formate] |
